Reference: ChEMBL document CHEMBL1933046, “Synthesis and antibacterial activity of a novel series of acylides active against community acquired respiratory pathogens” (2012)
In brackets after ≈: the same amount, converted by molar mass. Activity calls are given as the source filed them. No cut-off for these calls is given here.

Legend:
[1] = test system: Streptococcus pneumoniae; experiment: Antibacterial activity against Streptococcus pneumoniae 49619 by NCCLS method; format: functional
[2] = test system: Streptococcus pneumoniae; experiment: Antibacterial activity against telethromycin-resistant Streptococcus pneumoniae 3489 expressing erm gene by NCCLS method; format: functional
[3] = test system: Streptococcus pneumoniae; experiment: Antibacterial activity against telethromycin-resistant Streptococcus pneumoniae 162 expressing erm gene by NCCLS method; format: functional
[4] = test system: Streptococcus pyogenes; experiment: Antibacterial activity against Streptococcus pyogenes 19615 by NCCLS method; format: functional
[5] = test system: Haemophilus influenzae; experiment: Antibacterial activity against Haemophilus influenzae 38 by NCCLS method; format: functional
[6] = test system: Streptococcus pneumoniae; experiment: Antibacterial activity against telethromycin-resistant Streptococcus pneumoniae 3390 expressing erm gene by NCCLS method; format: functional
[7] = test system: Streptococcus pneumoniae; experiment: Antibacterial activity against telethromycin-resistant Streptococcus pneumoniae 5051 expressing erm gene by NCCLS method; format: functional
[8] = test system: Streptococcus pneumoniae; experiment: Antibacterial activity against telethromycin-resistant Streptococcus pneumoniae 2840 expressing erm gene by NCCLS method; format: functional
[9] = test system: Streptococcus pneumoniae; experiment: Antibacterial activity against Streptococcus pneumoniae 994 expressing mef gene by NCCLS method; format: functional
[10] = test system: Streptococcus pneumoniae; experiment: Antibacterial activity against telethromycin-resistant Streptococcus pneumoniae 217 expressing erm gene by NCCLS method; format: functional
[11] = test system: Streptococcus pneumoniae; experiment: Antibacterial activity against telethromycin-resistant Streptococcus pneumoniae AB14 expressing erm gene by NCCLS method; format: functional
[12] = test system: Streptococcus pneumoniae; experiment: Antibacterial activity against Streptococcus pneumoniae 3579 expressing erm gene by NCCLS method; format: functional
[13] = test system: Moraxella catarrhalis; experiment: Antibacterial activity against Moraxella catarrhalis 8176 by NCCLS method; format: functional
[14] = test system: Streptococcus pneumoniae; experiment: Antibacterial activity against Streptococcus pneumoniae 6303 by NCCLS method; format: functional
[15] = test system: Streptococcus pneumoniae; experiment: Antibacterial activity against Streptococcus pneumoniae 3579 expressing erm gene infected in mouse systemic infection model; format: functional, organism-based
[16] = test system: Streptococcus pneumoniae; experiment: Antibacterial activity against telethromycin-resistant Streptococcus pneumoniae 3488 expressing erm gene by NCCLS method; format: functional
[17] = test system: Streptococcus pneumoniae; experiment: Antibacterial activity against telethromycin-resistant Streptococcus pneumoniae 5099 expressing erm gene by NCCLS method; format: functional
[18] = test system: Streptococcus pneumoniae; experiment: Antibacterial activity against telethromycin-resistant Streptococcus pneumoniae 757 expressing erm gene by NCCLS method; format: functional
[19] = test system: Streptococcus pneumoniae; experiment: Antibacterial activity against telethromycin-resistant Streptococcus pneumoniae 3271 expressing erm gene by NCCLS method; format: functional
[20] = test system: Streptococcus pneumoniae; experiment: Antibacterial activity against telethromycin-resistant Streptococcus pneumoniae B739 expressing erm gene by NCCLS method; format: functional

SMILES	MIC [1]	MIC [2]	MIC [3]	MIC [4]	MIC [5]	MIC [6]	MIC [7]	MIC [8]	MIC [9]	MIC [10]	MIC [11]	MIC [12]	MIC [13]	MIC [14]	Activity [15]	MIC [16]	MIC [17]	MIC [18]	MIC [19]	MIC [20]
C=CCN(C)[C@H]1C[C@@H](C)O[C@@H](O[C@@H]2[C@@H](C)[C@H](OC(=O)Cc3ccccn3)[C@@H](C)C(=O)O[C@H](CC)[C@@]3(C)OC(=O)N(CCCCn4cnc(-c5ccco5)c4)[C@@H]3[C@@H](C)C(=O)[C@H](C)C[C@@]2(C)OC)[C@@H]1O	0.03 µg/mL (≈ 0.0316 µM)	2 µg/mL (≈ 2.11 µM)	4 µg/mL (≈ 4.22 µM)	0.03 µg/mL (≈ 0.0316 µM)	< 0.06 µg/mL	0.5 µg/mL (≈ 0.527 µM)	0.25 µg/mL (≈ 0.264 µM)	2 µg/mL (≈ 2.11 µM)	0.125 µg/mL (≈ 0.132 µM)	1 µg/mL (≈ 1.05 µM)	0.25 µg/mL (≈ 0.264 µM)	0.125 µg/mL (≈ 0.132 µM)	0.25 µg/mL (≈ 0.264 µM)	0.06 µg/mL (≈ 0.0633 µM)	Active	0.5 µg/mL (≈ 0.527 µM)	0.25 µg/mL (≈ 0.264 µM)	1 µg/mL (≈ 1.05 µM)	2 µg/mL (≈ 2.11 µM)	2 µg/mL (≈ 2.11 µM)
C=CCN(C)[C@H]1C[C@@H](C)O[C@@H](O[C@@H]2[C@@H](C)[C@H](OC(=O)Cc3ccccn3)[C@@H](C)C(=O)O[C@H](CC)[C@@]3(C)OC(=O)N(CCCCn4cnc5ncccc54)[C@@H]3[C@@H](C)C(=O)[C@H](C)C[C@@]2(C)OC)[C@@H]1O	0.06 µg/mL (≈ 0.0643 µM)	0.5 µg/mL (≈ 0.536 µM)	1 µg/mL (≈ 1.07 µM)	0.06 µg/mL (≈ 0.0643 µM)	< 0.06 µg/mL	0.125 µg/mL (≈ 0.134 µM)	0.125 µg/mL (≈ 0.134 µM)	0.5 µg/mL (≈ 0.536 µM)	0.5 µg/mL (≈ 0.536 µM)	0.125 µg/mL (≈ 0.134 µM)	0.06 µg/mL (≈ 0.0643 µM)	0.5 µg/mL (≈ 0.536 µM)	0.25 µg/mL (≈ 0.268 µM)	0.06 µg/mL (≈ 0.0643 µM)	Active	0.125 µg/mL (≈ 0.134 µM)	0.06 µg/mL (≈ 0.0643 µM)	0.25 µg/mL (≈ 0.268 µM)	0.5 µg/mL (≈ 0.536 µM)	0.5 µg/mL (≈ 0.536 µM)
C=CCN(C)[C@H]1C[C@@H](C)O[C@@H](O[C@@H]2[C@@H](C)[C@H](OC(=O)Cc3ccccn3)[C@@H](C)C(=O)O[C@H](CC)[C@@]3(C)OC(=O)N(CCCCn4cnc(-c5ccc(N)nc5)c4)[C@@H]3[C@@H](C)C(=O)[C@H](C)C[C@@]2(C)OC)[C@@H]1O	0.06 µg/mL (≈ 0.0616 µM)	0.25 µg/mL (≈ 0.257 µM)	0.5 µg/mL (≈ 0.513 µM)	2 µg/mL (≈ 2.05 µM)		0.06 µg/mL (≈ 0.0616 µM)	0.03 µg/mL (≈ 0.0308 µM)	0.25 µg/mL (≈ 0.257 µM)	0.125 µg/mL (≈ 0.128 µM)	0.06 µg/mL (≈ 0.0616 µM)	0.03 µg/mL (≈ 0.0308 µM)	0.25 µg/mL (≈ 0.257 µM)	0.125 µg/mL (≈ 0.128 µM)	0.06 µg/mL (≈ 0.0616 µM)	Active	0.03 µg/mL (≈ 0.0308 µM)	0.03 µg/mL (≈ 0.0308 µM)	0.06 µg/mL (≈ 0.0616 µM)	0.25 µg/mL (≈ 0.257 µM)	0.125 µg/mL (≈ 0.128 µM)
CC[C@H]1OC(=O)[C@H](C)C(=O)[C@H](C)[C@@H](O[C@@H]2O[C@H](C)C[C@H](N(C)C)[C@H]2O)[C@](C)(OC)C[C@@H](C)C(=O)[C@H](C)[C@H]2N(CCCCn3cnc(-c4cccnc4)c3)C(=O)O[C@]12C [TELITHROMYCIN]	0.06 µg/mL (≈ 0.0739 µM)	64 µg/mL (≈ 78.8 µM)	64 µg/mL (≈ 78.8 µM)	0.03 µg/mL (≈ 0.0369 µM)	1 µg/mL (≈ 1.23 µM)	8 µg/mL (≈ 9.85 µM)	4 µg/mL (≈ 4.93 µM)	64 µg/mL (≈ 78.8 µM)	0.25 µg/mL (≈ 0.308 µM)	4 µg/mL (≈ 4.93 µM)	8 µg/mL (≈ 9.85 µM)	0.25 µg/mL (≈ 0.308 µM)	0.25 µg/mL (≈ 0.308 µM)	0.03 µg/mL (≈ 0.0369 µM)		8 µg/mL (≈ 9.85 µM)	8 µg/mL (≈ 9.85 µM)	32 µg/mL (≈ 39.4 µM)	64 µg/mL (≈ 78.8 µM)	64 µg/mL (≈ 78.8 µM)
C=CCN(C)[C@H]1C[C@@H](C)O[C@@H](O[C@@H]2[C@@H](C)[C@H](OC(=O)Cc3ccccn3)[C@@H](C)C(=O)O[C@H](CC)[C@@]3(C)OC(=O)N(CCCCn4cnc(-c5ccnc(N)c5)c4)[C@@H]3[C@@H](C)C(=O)[C@H](C)C[C@@]2(C)OC)[C@@H]1O	0.03 µg/mL (≈ 0.0308 µM)	1 µg/mL (≈ 1.03 µM)	1 µg/mL (≈ 1.03 µM)	2 µg/mL (≈ 2.05 µM)		0.125 µg/mL (≈ 0.128 µM)	0.06 µg/mL (≈ 0.0616 µM)	0.5 µg/mL (≈ 0.513 µM)	0.06 µg/mL (≈ 0.0616 µM)	0.125 µg/mL (≈ 0.128 µM)	0.03 µg/mL (≈ 0.0308 µM)	0.125 µg/mL (≈ 0.128 µM)	0.06 µg/mL (≈ 0.0616 µM)	0.03 µg/mL (≈ 0.0308 µM)	Active	0.125 µg/mL (≈ 0.128 µM)	0.06 µg/mL (≈ 0.0616 µM)	0.125 µg/mL (≈ 0.128 µM)	2 µg/mL (≈ 2.05 µM)	1 µg/mL (≈ 1.03 µM)
C=CCN(C)[C@H]1C[C@@H](C)O[C@@H](O[C@@H]2[C@@H](C)[C@H](OC(=O)Cc3ccccn3)[C@@H](C)C(=O)O[C@H](CC)[C@@]3(C)OC(=O)N(CCCCn4cnc(-c5cccnc5)c4)[C@@H]3[C@@H](C)C(=O)[C@H](C)C[C@@]2(C)OC)[C@@H]1O	0.008 µg/mL (≈ 0.00834 µM)			0.008 µg/mL (≈ 0.00834 µM)	0.125 µg/mL (≈ 0.13 µM)				0.125 µg/mL (≈ 0.13 µM)			0.25 µg/mL (≈ 0.261 µM)	0.125 µg/mL (≈ 0.13 µM)	0.015 µg/mL (≈ 0.0156 µM)						
